# From patent US9676789B2, “Aminated derivative of homoharringtonine, preparation method therefor, and application thereof” (HANGZHOU BENSHENG PHARMACEUTICAL CO., LTD., priority 2011, dated 2017)
# Experiments:
# MG63 (osteosarcoma) = test: MTT solid tumor cell growth inhibition, 72 h; format: cell-based, human; settings: Homo sapiens, MG 63, 72 h; for IC50: read-out: IC50; for IC90: read-out: IC90
# Summary of the method: (§1)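 MTT read-out after 72 h compound treatment at 37° C, 5% CO2, of 4000 cells/well that had first been cultured 24 h in DMEM high glucose plus 10% FBS. Cell viability (%) refers to untreated control as 100%.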
# [1] = tested on: U87 MG (malignant glioma cell); test: MTT solid tumor cell growth inhibition, 72 h; format: cell-based, human; settings: Homo sapiens, U-87 MG; for IC50: read-out: IC50; for IC90: read-out: IC90
# Summary of the method: as §1
# PC-3 (prostate cancer) = test: MTT solid tumor cell growth inhibition, 72 h; format: cell-based, human; settings: Homo sapiens, PC-3, 72 h; for IC50: read-out: IC50; for IC90: read-out: IC90
# Summary of the method: as §1
# [2] = tested on: SK-OV-3 (ovarian cancer cell); test: MTT solid tumor cell growth inhibition, 72 h; format: cell-based, human; settings: Homo sapiens, SK-OV-3, 72 h; for IC50: read-out: IC50; for IC90: read-out: IC90
# Summary of the method: as §1
# [3] = tested on: CNE (nasopharyngeal carcinoma cell); test: MTT solid tumor cell growth inhibition, 72 h; format: cell-based, human; settings: Homo sapiens; for IC50: read-out: IC50; for IC90: read-out: IC90
# Summary of the method: as §1
# [4] = tested on: PANC-1 (pancreatic cancer); test: MTT solid tumor cell growth inhibition, 72 h; format: cell-based, human; settings: Homo sapiens, PANC-1, 72 h; for IC50: read-out: IC50; for IC90: read-out: IC90
# Summary of the method: as §1
# [5] = tested on: CaES-17 (esophageal cancer cell); test: MTT solid tumor cell growth inhibition, 72 h; format: cell-based, human; settings: Homo sapiens, CaEs17, CaES-17, 72 h; for IC50: read-out: IC50; for IC90: read-out: IC90
# Summary of the method: as §1
# [6] = tested on: K562/adr, NB4, Kasumi-1 and H9; test: Anti-leukemia activity, summary over cell lines; format: cell-based, human; settings: result in words, summary of Table 1
# Description: Leukemia cell lines: K562/adr (drug-resistant, chronic myeloid leukemia, CML), NB4 (acute promyelocytic leukemia, AML), Kasumi-1 (acute myeloid leukemia M2 type, AML-M2), Jurkat (acute lymphoblastic leukemia, ALL), all of which are donated by Cancer Research Institute of Zhejiang University, China; and H9 (acute lymphoblastic leukemia, ALL), which is purchased from China Center for Type Culture Collection.
# Obtaining 6000 well-growing leukemia cells and inoculating them into wells of a 96-well cell culture plate. The culture medium is the 1640 cell culture medium containing 10% fetal bovine serum. After adding the homoharringtonine derivatives of different concentrations and mixing uniformly, placing the plate in a carbon dioxide cell incubator (5% CO2) at 37° C. and incubating for 72 hours. Then the viable cell concentration is determined by the MTT method. In this experiment, the cell viability in control group (not treated with any compound) is set as 100%.
# [7] = tested on: RPMI8226 (multiple myeloma); test: MTT multiple myeloma cell growth inhibition, 72 h; format: cell-based, human; settings: for IC50 / IC90: Homo sapiens, RPMI-8226, RPMI8226, 72 h; for IC50: read-out: IC50; for IC90: read-out: IC90
# Summary of the method: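 RPMI8226 cells at 6000 per well in 1640 medium with 10% fetal bovine serum, exposed to homoharringtonine derivatives at various concentrations. Incubation 72 h at 37° C, 5% CO2; viable cells read by MTT.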
# [8] = tested on: A549, PANC-1, Becap37, MG63, Huh7, RKO, Hela, CaES-17, CNE, Hep-2, PC-3 and SK-OV-3; test: Anti-human solid tumor effect, summary over cell lines; format: cell-based; settings: result in words, summary of Table 2
# Experimental: Human solid tumor cell lines: Hep-2 ([…]), A549 (human lung cancer), CaES-17 (esophageal cancer cell), PC-3 (prostate cancer), CNE (nasopharyngeal carcinoma cell), and SK-OV-3 (ovarian cancer cell), all of which are purchased from China Center For Type Culture Collection; RKO (human colon adenocarcinoma cell), MGC 803 (human gastric cancer cell), MG63 (osteosarcoma) and U87 MG (malignant glioma cell), all of which are purchased from Fuxiang Bio-tech Co. Ltd., Shanghai, China; PANC-1 (pancreatic cancer), Huh7 (human liver cancer cell), Becap37 (human breast cancer cell), and Hela (human cervical cancer cell), all of which are donated by Cancer Research Institute of Zhejiang University, China.
# Obtaining 4000 well-growing human solid tumor cells and inoculating them into wells of a 96-well cell culture plate. The culture medium is DMEM High Glucose cell culture medium containing 10% fetal bovine serum. The plate is placed in a carbon dioxide cell incubator (5% CO2) at 37° C. and incubating for 24 hours. After adding the homoharringtonine derivatives of different concentration and mixing uniformly, the plate is placed in a carbon dioxide cell incubator (5% CO2) at 37° C. and incubating for 72 hours. Then the viable cell concentration is determined by the MTT method and the cell viability (%) after drug treatment is calculated. In this experiment, the cell viability of control group (not treated with any compound) is set as 100%.
# [9] = tested on: H9 (acute lymphoblastic leukemia, ALL); test: MTT leukemia cell growth inhibition, 72 h; format: cell-based, human; settings: Homo sapiens, H9, 72 h; for IC50: read-out: IC50; for IC90: read-out: IC90
# Summary of the method: (§2)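 After 72 h of compound exposure (37°C, 5% CO2), viability was read by MTT and expressed relative to untreated cells at 100%. Each well held 6000 leukemia cells in 1640 medium containing 10% fetal bovine serum, with homoharringtonine derivatives added at a range of concentrations.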
# [10] = tested on: Kasumi-1 (acute myeloid leukemia M2 type, AML-M2); test: MTT leukemia cell growth inhibition, 72 h; format: cell-based, human; settings: Homo sapiens, Kasumi-1, 72 h; for IC50: read-out: IC50; for IC90: read-out: IC90
# Summary of the method: as §2
# [11] = tested on: Jurkat (acute lymphoblastic leukemia, ALL); test: MTT leukemia cell growth inhibition, 72 h; format: cell-based, human; settings: Homo sapiens; for IC50: read-out: IC50; for IC90: read-out: IC90
# Summary of the method: as §2
# [12] = tested on: NB4 (acute promyelocytic leukemia, AML); test: MTT leukemia cell growth inhibition, 72 h; format: cell-based, human; settings: Homo sapiens, NB4, 72 h; for IC50: read-out: IC50; for IC90: read-out: IC90
# Summary of the method: as §2
# [13] = tested on: K562/adr (drug-resistant, chronic myeloid leukemia, CML); test: MTT leukemia cell growth inhibition, 72 h; format: cell-based, human; settings: Homo sapiens, K562/Adr; for IC50: read-out: IC50; for IC90: read-out: IC90
# Summary of the method: as §2
# [14] = tested on: Huh7 (human liver cancer cell); test: MTT solid tumor cell growth inhibition, 72 h; format: cell-based; settings: Homo sapiens, Huh-7, Huh7, 72 h; for IC50: read-out: IC50; for IC90: read-out: IC90
# Summary of the method: as §1
# [15] = tested on: Hep-2 (human hepatocellular carcinoma); test: MTT solid tumor cell growth inhibition, 72 h; format: cell-based; settings: Homo sapiens, HEp-2, Hep2, 72 h; for IC50: read-out: IC50; for IC90: read-out: IC90
# Summary of the method: as §1
# [16] = tested on: RKO (human colon adenocarcinoma cell); test: MTT solid tumor cell growth inhibition, 72 h; format: cell-based; settings: Homo sapiens; for IC50: read-out: IC50; for IC90: read-out: IC90
# Summary of the method: as §1
# [17] = tested on: Becap37 (human breast cancer cell); test: MTT solid tumor cell growth inhibition, 72 h; format: cell-based; settings: Homo sapiens, Becap37, 72 h; for IC50: read-out: IC50; for IC90: read-out: IC90
# Summary of the method: as §1
# [18] = tested on: MGC 803 (human gastric cancer cell); test: MTT solid tumor cell growth inhibition, 72 h; format: cell-based; settings: Homo sapiens, MGC 803, 72 h; for IC50: read-out: IC50; for IC90: read-out: IC90
# Summary of the method: as §1
# A549 (human lung cancer) = test: MTT solid tumor cell growth inhibition, 72 h; format: cell-based; settings: Homo sapiens, A549, 72 h; for IC50: read-out: IC50; for IC90: read-out: IC90
# Summary of the method: as §1
# [19] = tested on: Hela (human cervical cancer cell); test: MTT solid tumor cell growth inhibition, 72 h; format: cell-based; settings: Homo sapiens, HeLa; for IC50: read-out: IC50; for IC90: read-out: IC90
# Summary of the method: as §1
compound,measurement,setting,value
COC1=C[C@]23CCCN2CCc2cc4c(cc2[C@@H]3[C@@H]1OC(=O)[C@@](O)(CCCC(C)(C)O)CC(=O)N1CCC(N(C)C)CC1)OCO4 [BS-HH-050],IC50,MG63 (osteosarcoma),0.19 µg/mL
same,IC90,MG63 (osteosarcoma),7.22 µg/mL
same,IC50,[1],0.24 µg/mL
same,IC90,[1],1.06 µg/mL
same,IC50,PC-3 (prostate cancer),0.45 µg/mL
same,IC90,PC-3 (prostate cancer),> 16 µg/mL
same,IC50,[2],0.57 µg/mL
same,IC90,[2],> 16 µg/mL
same,IC50,[3],0.15 µg/mL
same,IC90,[3],> 16 µg/mL
same,IC50,[4],0.23 µg/mL
same,IC90,[4],> 16 µg/mL
same,IC50,[5],0.46 µg/mL
same,IC90,[5],16 µg/mL
same,"anti-K562/adr, anti-NB4, anti-Kasumi-1 and anti-H9 activity",[6],strong
same,IC50,[7],0.1 µg/mL
same,IC90,[7],0.38 µg/mL
same,"anti-A549, anti-PANC-1, anti-Becap37, anti-MG63, anti-Huh7, anti-RKO, anti-Hela, anti-CaES-17, anti-CNE, anti-Hep-2, anti-PC-3 and anti-SK-OV-3 effect",[8],strong
same,IC50,[9],0.13 µg/mL
same,IC90,[9],0.35 µg/mL
same,IC50,[10],0.041 µg/mL
same,IC90,[10],0.18 µg/mL
same,IC50,[11],0.12 µg/mL
same,IC90,[11],16 µg/mL
same,IC50,[12],0.08 µg/mL
same,IC90,[12],0.17 µg/mL
same,IC50,[13],0.72 µg/mL
same,IC90,[13],8.99 µg/mL
same,IC50,[14],0.1 µg/mL
same,IC90,[14],16 µg/mL
same,IC50,[15],0.31 µg/mL
same,IC90,[15],> 16 µg/mL
same,IC50,[16],0.053 µg/mL
same,IC90,[16],0.23 µg/mL
same,IC50,[17],0.26 µg/mL
same,IC90,[17],16 µg/mL
same,IC50,[18],0.18 µg/mL
same,IC90,[18],0.48 µg/mL
same,IC50,A549 (human lung cancer),0.7 µg/mL
same,IC90,A549 (human lung cancer),> 16 µg/mL
same,IC50,[19],0.46 µg/mL
same,IC90,[19],> 16 µg/mL
"COC1=C[C@]23CCCN2CCc2cc4c(cc2[C@@H]3[C@@H]1OC(=O)[C@@](O)(CCCC(C)(C)O)CC(=O)NCc1ccc(C)o1)OCO4 [BS-HH-054, O-3-[(2R)-2,6-dihydroxy-2-(2′-(5-methyl)furan-2-methylamino-2′-oxoethyl)-6-methylheptanoyl]cephalotaxine]",IC50,MG63 (osteosarcoma),0.12 µg/mL
same,IC90,MG63 (osteosarcoma),8.07 µg/mL
same,IC50,[1],0.32 µg/mL
same,IC90,[1],16 µg/mL
same,IC50,PC-3 (prostate cancer),0.46 µg/mL
same,IC90,PC-3 (prostate cancer),> 16 µg/mL
same,IC50,[2],0.47 µg/mL
same,IC90,[2],> 16 µg/mL
same,IC50,[3],0.15 µg/mL
same,IC90,[3],16 µg/mL
same,IC50,[4],0.15 µg/mL
same,IC90,[4],> 16 µg/mL
same,IC50,[5],1.37 µg/mL
same,IC90,[5],> 16 µg/mL
same,"anti-K562/adr, anti-NB4, anti-Kasumi-1 and anti-H9 activity",[6],strong
same,IC50,[7],0.092 µg/mL
same,IC90,[7],0.24 µg/mL
same,anti-RPMI8226 (multiple myeloma) effect,"[7]; result in words, summary of Table 2",strong
same,"anti-A549, anti-PANC-1, anti-Becap37, anti-MG63, anti-Huh7, anti-RKO, anti-Hela, anti-CaES-17, anti-CNE, anti-Hep-2, anti-PC-3 and anti-SK-OV-3 effect",[8],strong
same,IC50,[9],0.17 µg/mL
same,IC90,[9],0.43 µg/mL
same,IC50,[10],0.053 µg/mL
same,IC90,[10],0.19 µg/mL
same,IC50,[11],0.11 µg/mL
same,IC90,[11],16 µg/mL
same,IC50,[12],0.09 µg/mL
same,IC90,[12],0.2 µg/mL
same,IC50,[13],0.66 µg/mL
same,IC90,[13],4.4 µg/mL
same,IC50,[14],0.12 µg/mL
same,IC90,[14],16 µg/mL
same,IC50,[15],0.23 µg/mL
same,IC90,[15],> 16 µg/mL
same,IC50,[16],2.75 µg/mL
same,IC90,[16],6.97 µg/mL
same,IC50,[17],0.14 µg/mL
same,IC90,[17],16 µg/mL
same,IC50,[18],0.15 µg/mL
same,IC90,[18],6 µg/mL
same,IC50,A549 (human lung cancer),0.72 µg/mL
same,IC90,A549 (human lung cancer),> 16 µg/mL
same,IC50,[19],0.3 µg/mL
same,IC90,[19],> 16 µg/mL
